Values of other authors as cited in US20260092079A1, “MANUFACTURE METHOD FOR AQUEOUS FORMULATION OF MANGANESE-CONTAINING COORDINATION COMPLEX, FORMULATION, AND METHOD OF TREATMENT” (GALERA LABS, LLC, priority 2019, published 2026).

Assays:
[1] = test system: collagen-induced arthritis; conditions: rat
[2] = test system: lethal total body irradiation; conditions: adult mice
inflammation = conditions: rat model
[3] = test system: experimental model of colitis; conditions: rats
[4] = test system: radiation-induced oral mucositis; conditions: hamster, acute radiation-induced oral mucositis
oral mucositis = conditions: head-and-neck cancer patients undergoing chemoradiation therapy
[5] = test system: VEGFr inhibitor-induced pulmonary disease; conditions: rat model

Row | Structure (SMILES) | Joint disease [1] | Radiation damage [2] | Inflammation (inflammation) | Injury to the colon [3] | Radiation damage [4] | Oral mucositis (oral mucositis) | VEGFr inhibitor-induced pulmonary disease [5]
1 | [Cl-].[Cl-].[Mn+2].c1cc2nc(c1)CN[C@@H]1CCCC[C@H]1NCCN[C@@H]1CCCC[C@H]1NC2 [GC4403] | prevent joint disease | attenuate the radiation damage | inhibit inflammation | very significantly reduce the injury to the colon | attenuate the radiation damage |  | 
2 | [Cl][Mn][Cl].c1cc2nc(c1)CN[C@H]1CCCC[C@@H]1NCCN[C@H]1CCCC[C@@H]1NC2 [GC4419] |  |  |  |  |  | reduce oral mucositis | attenuate VEGFr inhibitor-induced pulmonary disease
